Laboratory results taken from US20150359884A1, “MULTI-PHOTON ISOMERISATION OF COMBRETASTATINS AND THEIR USE IN THERAPY” (priority 2011, published 2015).

Key:
[1] = Fluorescence quantum yields in solvents, UV one-photon excitation; format: physicochemical; conditions: 20° C., 290-300 nm excitation
Protocol: Absorption spectra were measured in either a Perkin Elmer Lambda 25 or 950 spectrophotometer. Fluorescence measurements were made with either a Spex Fluoromax or Varian Cary Eclipse spectrofluorimeter using the spectral correction curves supplied by the manufacturers. Fluorescence quantum yields with UV (one-photon) excitation were determined using either 2-aminopyridine (Φref 0.6 [7]) or 9-chloroanthracene (Φref 0.50 in dichloromethane, determined here relative to 9,10-diphenylanthracene in cyclohexane (Φref 0.97) and anthracene in ethanol (Φref 0.28 [8]) as standards. Fluorescence quantum yields were determined from the relative slopes of plots of integrated fluorescence intensity versus (1-10^−A) for samples having absorbance A≦0.1. The square of the refractive index (n^2) correction was applied when sample and reference compounds were in different solvents. Irradiation of the samples was minimized by the use of narrow excitation slits to reduce simultaneous photoisomerization.
The fluorescence quantum yields for E-CA4F were generally somewhat higher than for E-CA4.

[2] = Picosecond time-resolved infrared (TRIR) spectroscopy of excited states; format: physicochemical
Protocol: The ultrafast time-resolved infrared (TRIR) experiments were performed on the ‘ULTRA’ laser system at the Science and Technology Facilities Council Rutherford Appleton Laboratory. The capabilities of the ULTRA instrument are described in detail elsewhere. Briefly, a chirped pulse amplified titanium:sapphire laser operating at 10 kHz repetition rate produced 40-80 fs duration pulses at a wavelength of 800 nm. The UV excitation pulse was generated from third harmonic generation of the 800 nm output of the amplifier with ˜50 fs duration at 266 nm, irradiating samples with a 1 μJ, 100 μm diameter beam. The mid-IR probe pulse was generated using ˜0.4 mJ of the 800 nm femtosecond output to pump an optical parametric amplifier, and difference frequency mixing of the signal and idler components. The mid-IR probe output pulses had ˜500 cm-1 bandwidth and ˜50 fs pulse duration. The UV pulses were polarized at a magic angle to the IR probe laser polarization. The timing between the pump and probe was performed using a PCcontrolled optical delay line. The sample in solution was placed between two 25 mm diameter CaF2 plates in a rasterscanned Harrick cell to limit irradiation of the sample by multiple pulses. The optical path of the sample between the two windows was controlled using a 100 μm PTFE spacer and the solution flowed using a peristaltic pump. The intensity of the transmitted mid-IR light was dispersed by a grating onto a pair of 128-element mercury-cadmium telluride array detectors (IR Associates), providing full (i.e. ˜500 cm-1) spectral coverage with every laser pulse. The overall instrument response time was ˜200 fs. A reference spectrum of the laser pulse (before the Harrick cell) was accumulated on a third, 64-element array detector and was used to remove the effects of laser fluctuations from the transient absorption data. Ground-state FTIR spectra were recorded using a Nicolet Avatar 360 spectrometer.
FIGS. 12 and 13 show the TRIR spectra of both isomers of CA4 following ultrafast electronic excitation using 266 nm, with the ground-state FTIR spectra shown beneath the time resolved data for comparison. To date there has been little characterization of combretastatins by infrared spectroscopy. However, the ground-state FTIR spectra have obvious similarities with stilbene and on this basis we assign the 1586/1581 and 1510/1509 cm-1 bands in E-CA4/Z-CA4 to the v8a ring stretches of the phenyl groups and v19a ring stretch with additional contributions from C—H in-plane bending. In the excited state spectra, there are negative absorption bands corresponding to bleaching of the ground-state absorptions and both the E- and Z-isomers are dominated by transient bands between 1350 and 1500 cm-1. At early times the transient bands show rapid shifting over about 10 cm-1 to higher wavenumbers associated with rapid ‘cooling’ of excess vibrational energy following electronic excitation as commonly observed in other molecular systems including DNA [26] and for the C═C stretching band of E-stilbene observed by time-resolved resonance Raman spectroscopy. It is also notable that for E-CA4 at pump-probe delays up to 20 ps, the intensities of the transient bands increase and this is most likely due to molecular rearrangements taking place lowering the overall symmetry of the molecule and increasing the cross-sections of these IR active modes. […]

[3] = dichloromethane, 266 nm excitation

SMILES: COc1ccc(/C=C/c2cc(OC)c(OC)c(OC)c2)cc1O [E-CA4, (E)-1-(3′,4′,5′-Trimethoxyphenyl)-2-(4″-methoxy-3″-hydroxy-phenyl)ethene]
- Fluorescence quantum yield φ ([1]; DCM): 0.19
- Fluorescence quantum yield φ ([1]; DMSO): 0.15
- Fluorescence quantum yield φ ([1]; EtOH): 0.093
- Fluorescence quantum yield φ ([1]; Ethylene glycol): 0.19
- Fluorescence quantum yield φ ([1]; Glycerol): 0.35
- Fluorescence quantum yield φ ([1]; Hexane): 0.36
- Fluorescence quantum yield φ ([1]; MeCN): 0.099
- Fluorescence quantum yield φ ([1]; MeOH): 0.071
- Excited state decay, longer lifetime (relaxed excited state) [2, 3]: 503±56 ps
- Excited state decay, shorter lifetime (biexponential fit) [2, 3]: 6.5±0.46 ps
- Lifetime of the relaxed excited state measured by TRIR ([2]; methanol): 230±14 ps
